Measured values reported in patent US20240246911A1, “NOVEL T[…] METHODS OF TREATING MOOD DISORDERS” (GILGAMESH PHARMACEUTICALS INC., priority 2021, published 2024).
Counter-ions that a name gives are not always drawn. Like-named read-outs stand apart in the source and are kept apart here.

How the values were obtained:
5-HT2A receptor [1] = molecular target: T1, 5-HT2A receptor (Homo sapiens (Human), UniProt P28223); experiment: FLIPR Ca2+ flux functional assay, agonist activity at 5-HT2A; type: cell-based
Experimental: (§1) Functional Assays at 5-HT2A, 5-HT2B, and 5-HT1A Receptors. Agonist activity at 5-HT2A, 5-HT2B, and 5-HTIA receptors was determined using a FLIPR Ca^2− flux assay at WuXi AppTec (Hong Kong) Limited according to their standard protocols. Briefly, stably transfected cells expressing the receptor of interest (HEK293 for 5-HT2A and 5-HT2B; CHO cells for 5-HT1A) were grown and plated in a 384-well plate and incubated at 37° C. and 5% CO2 overnight. A solution of 250 mM probenecid in 1 mL FLIPR assay buffer was prepared fresh. This was combined with a fluorescent dye (Fluo-4 Direct™) to make a final assay concentration of 2.5 mM. Compounds were diluted 1:3.16 for 10 points and 750 nL was added to a 384-well compound plate using ECHO along with 30 μL of assay buffer. The fluorescent dye was then added to the assay plate along with assay buffer to a final volume of 40 μL. The cell plate was incubated for 50 min at 37° C.and 5% CO2 and placed into the FLIPR Tetra along with the compound plate. 10 μL of references and compounds were then transferred from the compound plate into the cell plate and the fluorescent signal was read.

5-HT2B receptor = 5-HT2B receptor (Homo sapiens (Human), UniProt P41595); experiment: FLIPR Ca2+ flux functional assay, agonist activity at 5-HT2B; type: cell-based; conditions: for Emax: HEK293 stably transfected cells, Ca2+ flux
Experimental: as §1

5-HT1A receptor = 5-HT1A receptor (Homo sapiens (Human), UniProt P08908); experiment: FLIPR Ca2+ flux functional assay, agonist activity at 5-HT1A; type: cell-based; conditions: for Emax: read-out: 5-HT1A Emax
Experimental: as §1

5-HT2A receptor [2] = molecular target: T1, 5-HT2A receptor; experiment: 5-HT2A receptor radioligand binding with [3H]ketanserin; conditions: HEK293 stable cell line, 1 nM [3H]ketanserin, 1 h, 25° C.
rat synaptosomes = experiment: Synaptosome 5-HT release assay; type: biochemical; conditions: for EC50: rat synaptosomes preloaded with [3H]5-HT, 10 mins
Experimental: Synaptosome 5-HT Release Assay. Synaptosome release assays were conducted according to modifications of previously described procedures (Partilla et al. (2016). Interrogating the Activity of Ligands at Monoamine Transporters in Rat Brain Synaptosomes. In Neurotransmitter Transporters (pp. 41-52). Springer.). Briefly, synaptosomes were prepared from rat brains. Male
Sprague-Dawley rats were rendered unconscious with CO2 and their brains were immediately removed. The cerebella were discarded and the whole brains (minus striatum) were placed in ice-cold 0.32 M sucrose (10 mL per brain) and gently homogenized by hand. The homogenate of each brain was centrifuged at 1,000×g at 4° C.for 10 mins and the resulting supernatant was diluted with ice-cold 0.32 M sucrose to a total volume of 10 mL to provide the synaptosome solution. […] The incubations were allowed to reach equilibrium for 2 h at 25° C. For the release reactions, 425 μL of preloaded synaptosomes were added to test tubes containing 75 μL of test drugs diluted in KPB containing 1 mg/mL BSA. After 10 mins, the release reaction was stopped using a cell harvester by rapid vacuum filtration over GF/B filter paper presoaked in wash buffer (10 mM Tris-HCl, pH 7.4, 150 mM NaCl) and the filters were washed with additional wash buffer. Filters were dried for 1 h at 60° C.and retained radioactivity was quantified using a MicroBeta 2 liquid scintillation counter. The amount of retained radioactivity was inversely proportional to the extent of release.

[3] = test system: rat forced swim test (FST); experiment: Forced swim test in rats; type: in vivo; conditions: s.c., 23.5-h pre-treatment time
Experimental: Compound 1 is tested for antidepressant-like activity in the rat forced swim test (FST). The compound induces antidepressant-like effects with a 23.5-h pre-treatment time.
Animals. Male Sprague Dawley rats, aged 9-10 weeks, are used in this experiment. Animals are housed in groups of 2 under controlled temperature (22+3°C.) and relative humidity (30-70%) conditions, with 12-hour light/dark cycles, and with ad libitum food and water. This study is carried out in strict accordance with the requirements of the Committee for the Purpose of Control and Supervision of Experiments on Animals (CPCSEA), India. All efforts are made to minimize suffering.
Drugs and Drug Administration. Test compound, saline vehicle, and the positive control desipramine are administered subcutaneously (s.c.), with doses calculated based on the free base. Normal saline is used as the vehicle (or acidified saline in the case of free bases). All compounds are administered at a volume of 5 mL/kg. Test compound and vehicle are administered 0.5 h after the start of the training swim (Swim 1) and 23.5 h before the test swim (Swim 2). […]
Behavioral scoring is conducted by observers who are blind to the treatment groups. Animals are continuously observed during Swim 2 and the total time spent engaging in the following behaviors is recorded: immobile, swimming, and climbing. […]

[4] = HEK293 stably transfected cells, Ca2+ flux

Sequence of 5-HT2B receptor (P41595 whole entry, looked up): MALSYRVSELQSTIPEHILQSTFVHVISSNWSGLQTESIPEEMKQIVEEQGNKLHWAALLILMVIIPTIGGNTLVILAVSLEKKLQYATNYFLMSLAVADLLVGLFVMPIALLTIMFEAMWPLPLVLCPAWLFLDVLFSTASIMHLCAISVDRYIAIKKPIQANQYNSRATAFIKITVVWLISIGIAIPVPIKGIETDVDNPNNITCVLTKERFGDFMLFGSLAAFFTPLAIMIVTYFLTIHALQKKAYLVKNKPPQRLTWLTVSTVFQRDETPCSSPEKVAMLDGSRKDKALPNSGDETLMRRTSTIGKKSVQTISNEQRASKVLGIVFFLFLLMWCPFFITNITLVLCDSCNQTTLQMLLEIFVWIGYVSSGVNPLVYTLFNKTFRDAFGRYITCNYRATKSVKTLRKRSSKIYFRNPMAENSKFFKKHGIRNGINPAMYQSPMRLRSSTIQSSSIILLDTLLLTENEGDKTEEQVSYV

| Structure (SMILES) | EC50 (5-HT2A receptor [1]) [nM] | agonist activity at the 5-HT2A receptor (in words) (5-HT2A receptor [1]; Ca2+ flux) | agonist type at the 5-HT2A receptor (in words) (5-HT2A receptor [1]; Ca2+ flux) | Emax (5-HT2A receptor [1]; [4]) [%] | EC50 (5-HT2B receptor) [nM] | Emax (5-HT2B receptor) [%] | EC50 (5-HT1A receptor) [µM] | Emax (5-HT1A receptor) [%] | Ki (5-HT2A receptor [2]) [nM] | 5-HT releaser potency compared to 5-MeO-DMT (in words) (rat synaptosomes; rat synaptosomes) | EC50 (rat synaptosomes) [nM] | % Release @ Max Dose (10 μM) (rat synaptosomes; rat synaptosomes) [%] | immobility time relative to vehicle control [3] | EC50 (5-HT2A receptor [1]; HEK293 stably transfected cells, Ca2+ flux, read-out: 5-HT2A EC50) [nM] |
| --- | --- | --- | --- | --- | --- | --- | --- | --- | --- | --- | --- | --- | --- | --- |
| CN(C)CCc1c[nH]c2ccc(OC(F)(F)F)cc12 [Compound 1, N,N-dimethyl-2-(5-(trifluoromethoxy)-1/-indol-3-yl)ethan-1-amine hydrochloride] | 127 | potent agonist activity | partial agonist rather than a full agonist | 78.9 | 762 | 19.6 | 6.33 | 81.8 | 890 | much more potent releaser of 5-HT | 192 | 58.77 | reduces immobility time relative to vehicle control in a dose-dependent manner |  |
| COc1ccc2[nH]cc(CCN(C)C)c2c1 [Compound 5-MeO-DMT, 5-methoxy-N,N-dimethyltryptamine, reference compound] |  |  |  | 106 |  | 17.6 |  | 100 |  |  | 3950 | 54.63 |  |  |
| CN(C)CCc1c[nH]c2ccccc12 [DMT, N,N-dimethyltryptamine, reference compound] |  |  |  | 93.4 |  | 42.8 |  | 70.2 | 416 |  | 80.8 | 80.77 |  | 22.2 |
